Test results taken from patent US6204293A, “Inhibitors of protein isoprenyl transferases” (University of Pittsburgh, priority 1998, dated 2001).
Counter-ions that a name gives are not always drawn.

Molecular target: T1, Rat brain protein farnesyltransferase (Rattus norvegicus, UniProt Q02293+Q04631)
T1 construct: Rat brain protein farnesyltransferase activity is measured; from tissue; host or cells: rat brain
Assay: % inhibition of farnesylation, scintillation proximity assay with biotin-K Ras B fragment
Type: biochemical
Conditions: Table 1; 1 × 10^-5 M
From the text: The ability of the compounds of the invention to inhibit protein farnesyltransferase or protein geranylgeranyltransferase can be measured according to the method of Moores, et al., J. Biol. Chem. 266: 14603 (1991) or the method of Vogt, et al., J. Biol. Chem. 270:660-664 (1995). In addition, procedures for determination of the inhibition of farnesylation of the oncogene protein Ras are described by Goldstein, et al., J. Biol. Chem., 266:15575-15578 (1991) and by Singh in U.S. Pat. No. 5,245,061.
In addition, in vitro inhibition of protein farnesyltransferase may be measured by the following procedure. Rat brain protein farnesyltransferase activity is measured using an Amersham Life Science commercial scintillation proximity assay kit and substituting a biotin-K Ras B fragment (biotin-[…]CO2 H), 0.1 mM final concentration, for the biotin-lamin substrate provided by Amersham. The enzyme is purified according to Reiss, Y., et al., Cell, 62: 81-88 (1990), utilizing steps one through three.
The % inhibition of protein farnesyltransferase was determined for representative compounds of the invention.

T1 sequence (Q02293 whole entry, one chain of several): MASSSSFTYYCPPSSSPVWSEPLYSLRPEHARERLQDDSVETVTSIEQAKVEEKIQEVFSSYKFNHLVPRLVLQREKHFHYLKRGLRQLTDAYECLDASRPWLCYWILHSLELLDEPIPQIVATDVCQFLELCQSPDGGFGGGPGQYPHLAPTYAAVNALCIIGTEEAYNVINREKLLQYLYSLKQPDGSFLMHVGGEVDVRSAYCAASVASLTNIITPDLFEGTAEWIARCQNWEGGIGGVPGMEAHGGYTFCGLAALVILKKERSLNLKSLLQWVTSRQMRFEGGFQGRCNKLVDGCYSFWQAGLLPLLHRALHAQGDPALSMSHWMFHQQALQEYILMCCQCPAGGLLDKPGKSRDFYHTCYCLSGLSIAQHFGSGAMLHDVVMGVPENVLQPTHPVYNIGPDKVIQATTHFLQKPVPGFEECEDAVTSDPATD

Compound	% inhibition at 1 × 10^-5 M
COc1cc(I)c(C(=O)Nc2ccc(C(=O)N[C@@H](CCSC)C(=O)O)c(-c3ccccc3)c2)cc1OC [Example 756]	47%
COc1ccc(NCc2ccc(C(=O)N[C@@H](CCSC)C(=O)O)c(-c3ccccc3)c2)cc1 [Example 690]	61%
CSCC[C@H](NC(=O)c1ccc(CNc2cc(C(C)(C)C)[nH]n2)cc1-c1ccccc1)C(=O)O [Example 381]	79%
COc1cc(Cl)ccc1C(=O)Nc1ccc(C(=O)N[C@@H](CCSC)C(=O)O)c(-c2ccccc2)c1 [Example 753]	55%
CSCC[C@H](NC(=O)c1ccc(CNc2ccc3c(c2)CCC3)cc1-c1ccccc1)C(=O)O [Example 705]	72%

Same assay, conditions: Table 2; 1 × 10^-6 M

Compound	% inhibition at 1 × 10^-6 M
CSCC[C@H](NC(=O)c1ccc(CN(C(C)C)C2(Cc3ccccc3)CCCC2)cc1-c1ccccc1C)C(=O)O [Example 343]	72%
CSCC[C@H](NC(=O)c1ccc(CN(C)C(C)(C)Cc2ccccc2)cc1-c1ccccc1C)C(=O)O [Example 982]	64%
CSCC[C@H](NC(=O)c1ccc(CN(C(C)C)C2(Cc3ccccc3)CC2)cc1-c1ccccc1C)C(=O)O [Example 325]	99%
CSCC[C@H](NC(=O)c1ccc(S(=O)(=O)NCCN2CCOCC2)cc1-c1ccccc1C)C(=O)O [Example 775]	32%
CNCC(=O)Nc1ccc(C(=O)N[C@@H](CCSC)C(=O)O)c(-c2ccccc2)c1 [Example 749]	84%
CSCC[C@H](NC(=O)c1ccc(CNCC(O)c2cccc(O)c2)cc1-c1ccccc1)C(=O)O (stereo partly shown) [Example 661]	45%
CSCC[C@H](NC(=O)c1ccc(CNCCN(C(C)C)C(C)C)cc1-c1ccccc1)C(=O)O [Example 636]	72%
Cc1ccccc1-c1cc(CN(C2CC2)C2(Cc3ccccc3)CCC2)ccc1C(=O)N[C@@H](CCS(C)(=O)=O)C(=O)O [Example 333]	99%
CSCC[C@H](NC(=O)c1ccc(C=CCc2ccc3ccccc3c2)cc1-c1ccccc1C)C(=O)O [Example 496]	93%
CSCC[C@H](NC(=O)c1ccc(CN[C@H](CO)CC2CCCCC2)cc1-c1ccccc1C)C(=O)O [Example 617]	99%
CSCC[C@H](NC(=O)c1ccc(CN(CCO)Cc2ccccc2)cc1-c1ccccc1)C(=O)O [Example 515]	72%
CSCC[C@H](NC(=O)c1ccc(CNc2cccc(C(N)=O)c2)cc1-c1ccccc1)C(=O)O [Example 682]	31%
CSCC[C@H](NC(=O)c1ccc(CNCCSC(C)(C)C)cc1-c1ccccc1)C(=O)O [Example 627]	85%
CSCC[C@H](NC(=O)c1ccc(CN2C(=O)OC[C@@H]2CC2CCCCC2)cc1-c1ccccc1C)C(=O)O [Example 349]	99%

Same assay, conditions: Table 3; 1 × 10^-7 M

Compound	% inhibition at 1 × 10^-7 M
CSCC[C@H](NC(=O)c1ccc(CCc2ccc(C3CCCCC3)cc2)cc1-c1ccccc1C)C(=O)[O-].[Li+] [Example 461]	93%
CCSC[C@H](CC(C)C)N(C)Cc1ccc(C(=O)N[C@@H](CCSC)C(=O)O)c(-c2ccccc2C)c1 [Example 906]	88%

Same assay, conditions: Table 4; 1 × 10^-8 M

Compound	% inhibition at 1 × 10^-8 M
CSCC[C@H](NC(=O)c1ccc(CN[C@@H](CC2CCCCC2)C(=O)N2CCCCC2)cc1-c1ccccc1C)C(=O)O [Example 887]	92%
CSCC[C@H](NC(=O)c1ccc(CN(CCC2CCCCC2)Cc2ccccc2)cc1-c1ccccc1C)C(=O)[O-].[Li+] [Example 605]	68%
CCSC[C@H](CCc1ccccc1)NCc1ccc(C(=O)N[C@@H](CCSC)C(=O)O)c(-c2ccccc2C)c1 [Example 995]	92%

Same assay, conditions: Table 6; ** footnote 0.01 μM (title: 0.01 mM)

Compound	% inhibition at 0.01 μM (**)
COCCN(CCC1CCCCC1)Cc1ccc(C(=O)N[C@@H](CCSC)C(=O)O)c(-c2ccccc2C)c1 [Example 1104]	89%

Same assay, conditions: read-out: % inhibition at 0.01 μM (**); Table 6; ** footnote 0.01 μM (title: 0.01 mM)

Compound	inhibition at 0.01 µM
COCCOCOC[C@H](CC1CCCCC1)OCc1ccc(C(=O)N[C@@H](CCSC)C(=O)O)c(-c2ccccc2C)c1 [Example 1050, N-[4-(3-cyclohexyl-1-(2-methoxyethoxymethyleneoxy)prop-2-yloxymethyl)-2-(2-methylphenyl)benzoyl]methionine, lithium salt]	62%
CSCC[C@H](NC(=O)c1ccc(CO[C@H](COCC(O)CO)CC2CCCCC2)cc1-c1ccccc1C)C(=O)O (stereo partly shown) [Example 1347, N-[4-(3-Cyclohexyl-1-(2,3-dihydroxy-1-propoxy)-prop-2-yloxymethyl)-2-(2-methylphenyl)benzoyl]methionine, Lithium Salt]	81%
CSCC[C@H](NC(=O)c1ccc(CO[C@@H](CC2CCCCC2)C(=O)N2CCCCC2)cc1-c1ccccc1C)C(=O)O [Example 1052, N-[4-(3-cyclohexyl-N-piperidin-1-ylpropion-2-yloxymethyl)-2-(2-methylphenyl)benzoyl]methionine, lithium salt]	91%
CCCOC[C@H](CC1CCCCC1)OCc1ccc(C(=O)N[C@@H](CCSC)C(=O)O)c(-c2ccccc2C)c1 [Example 1305, N-[4-(3-Cyclohexyl-1-propoxyprop-2-yloxymethyl)-2-(2-methylphenyl)benzoyl]methionine Lithium Salt]	91%

Same assay, conditions: read-out: % inhibition at 0.1 μM (*)

Compound	inhibition at 0.1 µM
CCCOc1cccc(COCc2ccc(C(=O)N[C@@H](CCSC)C(=O)O)c(-c3ccccc3C)c2)c1 [Example 1209, N-[4-(3-(1-Propoxy)benzyloxymethyl)-2-(2-methylphenyl)benzoyl]methionine lithium salt]	87%

Same assay, conditions: read-out: % inhibition at 0.1 μM (*); Table 6; * footnote 0.1 μM (title: 0.1 mM)

Compound	inhibition at 0.1 µM
CCCCC(OCc1ccc(C(=O)N[C@@H](CCSC)C(=O)O)c(-c2ccccc2C)c1)C1CCOCC1 (stereo partly shown) [Example 1282, N-[4-(1-(4-tetrahydropyranyl)pentyloxymethyl-2-(2-methylphenyl)benzoyl]methioninelithium salt]	69%

Same assay, conditions: read-out: % inhibition at 1 × 10^-6 M

Compound	inhibition at 1 µM
CSCC[C@H](NC(=O)c1ccc(OCCCc2ccccc2)cc1-c1ccccc1C)C(=O)O [Example 879, N-[4-(3-phenylpropoxy)-2-(2-methylphenyl)benzoyl]methionine, lithium salt]	95%
CSCC[C@H](NC(=O)c1ccc(COCc2ccccc2C)cc1-c1ccccc1C)C(=O)O [Example 577, N-[4-(2-methylbenzyloxymethyl)-2-(2-methylphenyl)benzoyl]methionine lithium salt]	94%
CSCC[C@H](NC(=O)c1ccc(OCCOC2CCCCC2)cc1-c1ccccc1C)C(=O)O [Example 565, N-[4-(2-cyclohexyloxy)ethoxy-2-(2-methylphenyl)benzoyl]methionine, lithium salt]	94%

Same assay, conditions: read-out: % inhibition at 1 × 10^-6 M; Table 2; 1 × 10^-6 M

Compound	inhibition at 1 µM
CSCC[C@H](NC(=O)c1ccc(COCc2ccoc2)cc1-c1ccccc1C)C(=O)O [Example 530, N-[4-(furan-3-ylmethoxymethyl)-2-(2-methylphenyl)benzoyl]methionine litihium salt]	94%
CCOC[C@H](CC1CCCCC1)OCc1ccc(C(=O)N[C@@H](CCSC)C(=O)O)c(-c2ccccc2C)c1 [Example 525, N-[4-(3-Cyclohexyl-1-ethoxypropan-2-yl)oxymethyl-2-(2-methylphenyl)benzoyl]methionine lithium salt]	99%

Same assay, conditions: read-out: % inhibition at 1 × 10^-7 M; Table 3; 1 × 10^-7 M

Compound	inhibition at 0.1 µM
CSCC[C@H](NC(=O)c1ccc(COc2ccc3ccccc3c2)cc1-c1ccccc1C)C(=O)O [Example 573, N-[4-(naphth-2-yloxymethyl)-2-(2-methylphenyl)benzoyl]methionine]	72%
CSCC[C@H](NC(=O)c1ccc(CSc2ccc3ccccc3c2)cc1-c1ccccc1C)C(=O)O [Example 551, N-[4-naphth-2-ylthiomethyl-2-(2-methylphenyl)benzoyl]methionine]	93%
CSCC[C@H](NC(=O)c1ccc(CSc2nc3ccccc3[nH]2)cc1-c1ccccc1C)C(=O)O [Example 732]	84%

Same assay, conditions: read-out: % inhibition at 1 × 10^-8 M

Compound	inhibition at 0.01 µM
CSCC[C@H](NC(=O)c1ccc(COCc2ccccc2C(C)C)cc1-c1ccccc1C)C(=O)O [Example 938, N-[4-(2-isopropylbenzyloxymethyl)-2-(2-methylphenyl)benzoyl]methionine lithium salt]	61%
CSCC[C@H](NC(=O)c1ccc(COCc2occc2-c2ccc(Cl)cc2)cc1-c1ccccc1C)C(=O)O [Example 827, N-[4-(3-(4-chlorophenyl)furan-2-ylmethoxymethyl)-2-(2-methylphenyl)benzoyl]methionine lithium salt]	77%

Same assay, conditions: read-out: % inhibition at 1 × 10^-8 M; Table 4; 1 × 10^-8 M

Compound	inhibition at 0.01 µM
CCCCC(OCc1ccc(C(=O)N[C@@H](CCSC)C(=O)O)c(-c2ccccc2C)c1)c1cncs1 (stereo partly shown) [Example 985]	89%
CSCC[C@H](NC(=O)c1ccc(COCc2ccc(-c3ccc(N(C)C)cc3)o2)cc1-c1ccccc1C)C(=O)O [Example 821, N-[4-(5-(4-N,N-dimethylaminophenyl)furan-2-ylmethoxymethyl)-2-(2-methylphenyl)benzoyl]methionine lithium salt]	75%
